Source: the NIST ThermoML archive (doi:10.1016/j.jct.2004.11.013)
± gives the expanded uncertainty stated by the source.

Tests used:
[1] = φn = volume fraction of the nth substance listed; details: 303.15 K, 101.33 kPa, Liquid, Linear variable-path acoustic interferometer
[2] = xn = mol fraction of the nth substance listed; details: 303.15 K, 101.33 kPa, Liquid, Direct dilatometry
[3] = Liquid; for speed of sound / mass density: 303.15 K, 101.33 kPa; for speed of sound: Linear variable-path acoustic interferometer; for mass density: Pycnometric method

ClC(Cl)=C(Cl)Cl [tetrachloroethene] + BrCCBr
Details	speed of sound [m/s]
[1], φ2 = 0	1027.8 ± 3.5

ClC=C(Cl)Cl [trichloroethene] + BrCCBr
Details	excess molar volume [m3/mol]	speed of sound [m/s]
[1], φ2 = 0	–	1013.7 ± 3.5
[1], φ2 = 0.0922	–	1000.5 ± 3.4
[1], φ2 = 0.2012	–	990.5 ± 3.4
[1], φ2 = 0.2951	–	982.5 ± 3.4
[1], φ2 = 0.4462	–	973.5 ± 3.4
[1], φ2 = 0.54	–	971.2 ± 3.3
[1], φ2 = 0.6986	–	968.2 ± 3.3
[1], φ2 = 0.7836	–	972.4 ± 3.4
[1], φ2 = 0.8885	–	975.9 ± 3.4
[2], x2 = 0.0956	6.3e-08 ± 6e-09	–
[2], x2 = 0.2077	1.29e-07 ± 6e-09	–
[2], x2 = 0.3035	1.74e-07 ± 6e-09	–
[2], x2 = 0.4561	2.09e-07 ± 6e-09	–
[2], x2 = 0.5499	2.08e-07 ± 6e-09	–
[2], x2 = 0.7069	1.64e-07 ± 6e-09	–
[2], x2 = 0.7903	1.25e-07 ± 6e-09	–
[2], x2 = 0.8924	6.4e-08 ± 6e-09	–

ClC(Cl)C(Cl)Cl [1,1,2,2-tetrachloroethane] + BrCCBr
Details	speed of sound [m/s]
[1], φ2 = 0	1133.1 ± 3.5

BrCCBr [1,2-dibromoethane] + ClC(Cl)C(Cl)Cl
Details	excess molar volume [m3/mol]	speed of sound [m/s]
[1], φ1 = 0.0736	–	1123.4 ± 3.5
[1], φ1 = 0.1308	–	1112.7 ± 3.5
[1], φ1 = 0.2625	–	1092.9 ± 3.5
[1], φ1 = 0.3958	–	1069.6 ± 3.5
[1], φ1 = 0.4864	–	1054.5 ± 3.5
[1], φ1 = 0.6302	–	1031.7 ± 3.5
[1], φ1 = 0.7156	–	1019.7 ± 3.5
[1], φ1 = 0.895	–	995 ± 3.4
[1], φ1 = 1	–	984 ± 3.4
[2], x1 = 0.0885	-5.2e-08 ± 6e-09	–
[2], x1 = 0.1554	-9e-08 ± 6e-09	–
[2], x1 = 0.3032	-1.56e-07 ± 6e-09	–
[2], x1 = 0.4447	-1.71e-07 ± 6e-09	–
[2], x1 = 0.5365	-1.56e-07 ± 6e-09	–
[2], x1 = 0.6757	-9.8e-08 ± 6e-09	–
[2], x1 = 0.7546	-5.9e-08 ± 6e-09	–
[2], x1 = 0.9124	-3e-09 ± 6e-09	–

CC(Cl)(Cl)Cl [1,1,1-trichloroethane] + BrCCBr
Details	excess molar volume [m3/mol]	speed of sound [m/s]
[1], φ2 = 0	–	943.2 ± 3.3
[1], φ2 = 0.0787	–	942.1 ± 3.3
[1], φ2 = 0.1718	–	942.1 ± 3.3
[1], φ2 = 0.2457	–	944.6 ± 3.3
[1], φ2 = 0.3811	–	950.4 ± 3.4
[1], φ2 = 0.4866	–	958.1 ± 3.4
[1], φ2 = 0.595	–	961 ± 3.3
[1], φ2 = 0.6486	–	965.1 ± 3.4
[1], φ2 = 0.8532	–	973.6 ± 3.4
[2], x2 = 0.0902	-7.3e-08 ± 6e-09	–
[2], x2 = 0.1941	-1.2e-07 ± 6e-09	–
[2], x2 = 0.2744	-1.33e-07 ± 6e-09	–
[2], x2 = 0.4169	-1.11e-07 ± 6e-09	–
[2], x2 = 0.5239	-6.4e-08 ± 6e-09	–
[2], x2 = 0.6304	-6e-09 ± 6e-09	–
[2], x2 = 0.6818	2.1e-08 ± 6e-09	–
[2], x2 = 0.8709	6.9e-08 ± 6e-09	–

ClCCCl [1,2-dichloroethane]
[3]
Details	Normal boiling temperature [°C]	mass density [kg/m3]	speed of sound [m/s]
–	83.6 ± 0.21	1238.28 ± 2.2	1173.3 ± 3.6

BrCCBr [1,2-dibromoethane] + ClC(Cl)=C(Cl)Cl
Details	excess molar volume [m3/mol]	speed of sound [m/s]
[1], φ1 = 0.0955	–	1010.1 ± 3.5
[1], φ1 = 0.2327	–	992.8 ± 3.4
[1], φ1 = 0.321	–	985.8 ± 3.4
[1], φ1 = 0.4381	–	980.4 ± 3.4
[1], φ1 = 0.5881	–	975.3 ± 3.3
[1], φ1 = 0.6802	–	975.1 ± 3.3
[1], φ1 = 0.7639	–	973.7 ± 3.3
[1], φ1 = 0.8904	–	978.1 ± 3.4
[1], φ1 = 1	–	984 ± 3.4
[2], x1 = 0.1133	3e-07 ± 6e-09	–
[2], x1 = 0.2647	4.61e-07 ± 7e-09	–
[2], x1 = 0.3594	4.72e-07 ± 7e-09	–
[2], x1 = 0.4806	4.4e-07 ± 6e-09	–
[2], x1 = 0.6289	3.66e-07 ± 6e-09	–
[2], x1 = 0.7163	3.1e-07 ± 6e-09	–
[2], x1 = 0.7934	2.55e-07 ± 6e-09	–
[2], x1 = 0.906	1.43e-07 ± 6e-09	–

BrCCBr [1,2-dibromoethane] + ClC=C(Cl)Cl
Details	speed of sound [m/s]
[1], φ1 = 1	984 ± 3.4

BrCCBr [1,2-dibromoethane]
[3]
Details	Normal boiling temperature [°C]	mass density [kg/m3]	speed of sound [m/s]
–	131.50 ± 0.21	2159.67 ± 3.5	984 ± 3.2

CC(Cl)(Cl)Cl [1,1,1-trichloroethane]
[3]
Details	Normal boiling temperature [°C]	mass density [kg/m3]	speed of sound [m/s]
–	74 ± 0.21	1320.92 ± 2.3	943.2 ± 3.3

BrCCBr [1,2-dibromoethane] + ClCCCl
Details	excess molar volume [m3/mol]	speed of sound [m/s]
[1], φ1 = 0.1012	–	1149.2 ± 3.6
[1], φ1 = 0.1885	–	1125 ± 3.6
[1], φ1 = 0.2842	–	1101.8 ± 3.6
[1], φ1 = 0.3697	–	1079.6 ± 3.5
[1], φ1 = 0.5106	–	1047.3 ± 3.5
[1], φ1 = 0.6049	–	1029.8 ± 3.4
[1], φ1 = 0.7908	–	1001.3 ± 3.3
[1], φ1 = 0.8724	–	993 ± 3.3
[1], φ1 = 1	–	984 ± 3.2
[2], x1 = 0.0938	1.7e-08 ± 6e-09	–
[2], x1 = 0.1759	3e-08 ± 6e-09	–
[2], x1 = 0.2673	4.2e-08 ± 6e-09	–
[2], x1 = 0.3502	4.7e-08 ± 6e-09	–
[2], x1 = 0.4894	5.2e-08 ± 6e-09	–
[2], x1 = 0.5845	5.1e-08 ± 6e-09	–
[2], x1 = 0.7764	3.5e-08 ± 6e-09	–
[2], x1 = 0.8626	2.5e-08 ± 6e-09	–

ClC(Cl)=C(Cl)Cl [tetrachloroethene]
[3]
Details	Normal boiling temperature [°C]	mass density [kg/m3]	speed of sound [m/s]
–	121.30 ± 0.21	1606.36 ± 2.7	1027.8 ± 3.5

ClC(Cl)C(Cl)Cl [1,1,2,2-tetrachloroethane]
[3]
Details	Normal boiling temperature [°C]	mass density [kg/m3]	speed of sound [m/s]
–	146.10 ± 0.21	1578.57 ± 2.7	1133.1 ± 3.5

BrCCBr [1,2-dibromoethane] + CC(Cl)(Cl)Cl
Details	speed of sound [m/s]
[1], φ1 = 1	984 ± 3.4

ClCCCl [1,2-dichloroethane] + BrCCBr
Details	speed of sound [m/s]
[1], φ2 = 0	1173.3 ± 3.6

ClC=C(Cl)Cl [trichloroethene]
[3]
Details	Normal boiling temperature [°C]	mass density [kg/m3]	speed of sound [m/s]
–	87.2 ± 0.21	1451.34 ± 2.5	1013.7 ± 3.5
